Data from PubChem BioAssay (NCI).
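96-well plates; 48 h exposure; 5 concentrations. Endpoints by linear interpolation between flanking doses. Not reached: highest tested concentration assigned. TGI: concentration producing complete growth inhibition.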

What was measured:
Experiment in all cases: growth of human tumour cells (NCI), 48 h
786-0 renal = system: 786-0 renal
A549 NSCLC = system: A549 NSCLC
ACHN renal = system: ACHN renal
BT-549 breast = system: BT-549 breast
CAKI-1 renal = system: CAKI-1 renal
CCRF-CEM leukemia = system: CCRF-CEM leukemia
COLO 205 colon = system: COLO 205 colon
DU-145 prostate = system: DU-145 prostate
EKVX NSCLC = system: EKVX NSCLC
HCC-2998 colon = system: HCC-2998 colon
HCT-116 colon = system: HCT-116 colon
HCT-15 colon = system: HCT-15 colon
HOP-62 NSCLC = system: HOP-62 NSCLC
HT29 colon = system: HT29 colon
IGROV1 ovarian = system: IGROV1 ovarian
K-562 leukemia = system: K-562 leukemia
KM12 colon = system: KM12 colon
LOX IMVI melanoma = system: LOX IMVI melanoma
MCF7 breast = system: MCF7 breast
MDA-MB-231 breast = system: MDA-MB-231 breast
MDA-MB-435 = system: MDA-MB-435
MDA-N = system: MDA-N
NCI-H226 lung = system: NCI-H226 lung
NCI-H23 lung = system: NCI-H23 lung
NCI-H460 lung = system: NCI-H460 lung
NCI/ADR-RES ovarian = system: NCI/ADR-RES ovarian
OVCAR-3 ovarian = system: OVCAR-3 ovarian
OVCAR-4 ovarian = system: OVCAR-4 ovarian
OVCAR-5 ovarian = system: OVCAR-5 ovarian
PC-3 prostate = system: PC-3 prostate
RXF 393 renal = system: RXF 393 renal
SF-268 CNS = system: SF-268 CNS
SF-295 CNS = system: SF-295 CNS
SK-MEL-2 melanoma = system: SK-MEL-2 melanoma
SK-MEL-28 melanoma = system: SK-MEL-28 melanoma
SK-MEL-5 melanoma = system: SK-MEL-5 melanoma
SK-OV-3 ovarian = system: SK-OV-3 ovarian
SN12C renal = system: SN12C renal
SNB-19 CNS = system: SNB-19 CNS
SNB-75 CNS = system: SNB-75 CNS
SR leukemia = system: SR leukemia
SW-620 colon = system: SW-620 colon
T-47D breast = system: T-47D breast
TK-10 renal = system: TK-10 renal
U251 CNS = system: U251 CNS
UACC-257 melanoma = system: UACC-257 melanoma
UACC-62 melanoma = system: UACC-62 melanoma
UO-31 renal = system: UO-31 renal
A498 renal = system: A498 renal
HL-60(TB) leukemia = system: HL-60(TB) leukemia
HS 578T breast = system: HS 578T breast
M14 melanoma = system: M14 melanoma
MALME-3M melanoma = system: MALME-3M melanoma
MOLT-4 leukemia = system: MOLT-4 leukemia
NCI-H522 lung = system: NCI-H522 lung
RPMI-8226 leukemia = system: RPMI-8226 leukemia
SF-539 CNS = system: SF-539 CNS
HOP-92 NSCLC = system: HOP-92 NSCLC
OVCAR-8 ovarian = system: OVCAR-8 ovarian

## COC(=O)C1(CCCCl)CCCN1C(=O)OC(C)(C)C (stereo unspecified)
786-0 renal
  TGI: > 100 µM
A549 NSCLC
  TGI: > 100 µM
ACHN renal
  TGI: > 100 µM
BT-549 breast
  TGI: > 100 µM
CAKI-1 renal
  TGI: > 100 µM
CCRF-CEM leukemia
  TGI: > 100 µM
COLO 205 colon
  TGI: > 100 µM
DU-145 prostate
  TGI: > 100 µM
EKVX NSCLC
  TGI: > 100 µM
HCC-2998 colon
  TGI: > 100 µM
HCT-116 colon
  TGI: > 100 µM
HCT-15 colon
  TGI: > 100 µM
HOP-62 NSCLC
  TGI: > 100 µM
HT29 colon
  TGI: > 100 µM
IGROV1 ovarian
  TGI: > 100 µM
K-562 leukemia
  TGI: > 100 µM
KM12 colon
  TGI: > 100 µM
LOX IMVI melanoma
  TGI: > 100 µM
MCF7 breast
  TGI: > 100 µM
MDA-MB-231 breast
  TGI: > 100 µM
MDA-MB-435
  TGI: > 100 µM
MDA-N
  TGI: > 100 µM
NCI-H226 lung
  TGI: > 100 µM
NCI-H23 lung
  TGI: > 100 µM
NCI-H460 lung
  TGI: > 100 µM
NCI/ADR-RES ovarian
  TGI: > 100 µM
OVCAR-3 ovarian
  TGI: > 100 µM
OVCAR-4 ovarian
  TGI: > 100 µM
OVCAR-5 ovarian
  TGI: > 100 µM
PC-3 prostate
  TGI: > 100 µM
RXF 393 renal
  TGI: > 100 µM
SF-268 CNS
  TGI: > 100 µM
SF-295 CNS
  TGI: > 100 µM
SK-MEL-2 melanoma
  TGI: > 100 µM
SK-MEL-28 melanoma
  TGI: > 100 µM
SK-MEL-5 melanoma
  TGI: > 100 µM
SK-OV-3 ovarian
  TGI: > 100 µM
SN12C renal
  TGI: > 100 µM
SNB-19 CNS
  TGI: > 100 µM
SNB-75 CNS
  TGI: > 100 µM
SR leukemia
  TGI: > 100 µM
SW-620 colon
  TGI: > 100 µM
T-47D breast
  TGI: > 100 µM
TK-10 renal
  TGI: > 100 µM
U251 CNS
  TGI: > 100 µM
UACC-257 melanoma
  TGI: > 100 µM
UACC-62 melanoma
  TGI: > 100 µM
UO-31 renal
  TGI: > 100 µM

## COC(=O)C1=C(O)C(C(=O)OC)[C@@]2(O)[C@@H](C(=O)OC)[C@H](C)C[C@@H]1[C@@H]2C(=O)OC (stereo partly specified)
A498 renal
  TGI: 44.3 µM
ACHN renal
  TGI: > 100 µM
BT-549 breast
  TGI: > 100 µM
CCRF-CEM leukemia
  TGI: > 100 µM
DU-145 prostate
  TGI: 50.5 µM
EKVX NSCLC
  TGI: 69.6 µM
HCC-2998 colon
  TGI: 30.9 µM
HCT-116 colon
  TGI: > 100 µM
HCT-15 colon
  TGI: 92.6 µM
HL-60(TB) leukemia
  TGI: 73.8 µM
HOP-62 NSCLC
  TGI: > 100 µM
HS 578T breast
  TGI: 54.1 µM
HT29 colon
  TGI: 71.3 µM
K-562 leukemia
  TGI: > 100 µM
KM12 colon
  TGI: 58.1 µM
LOX IMVI melanoma
  TGI: > 100 µM
M14 melanoma
  TGI: 39.9 µM
MALME-3M melanoma
  TGI: > 100 µM
MCF7 breast
  TGI: > 100 µM
MDA-MB-231 breast
  TGI: 40.3 µM
MDA-MB-435
  TGI: 32.1 µM
MDA-N
  TGI: 31.4 µM
MOLT-4 leukemia
  TGI: > 100 µM
NCI-H226 lung
  TGI: > 100 µM
NCI-H23 lung
  TGI: > 100 µM
NCI-H460 lung
  TGI: 44.3 µM
NCI-H522 lung
  TGI: 50.7 µM
OVCAR-3 ovarian
  TGI: 40.2 µM
OVCAR-5 ovarian
  TGI: 98.9 µM
RPMI-8226 leukemia
  TGI: 71.5 µM
RXF 393 renal
  TGI: 58.9 µM
SF-539 CNS
  TGI: 34.1 µM
SK-MEL-2 melanoma
  TGI: 58.9 µM
SK-MEL-28 melanoma
  TGI: > 100 µM
SK-OV-3 ovarian
  TGI: 72.9 µM
SN12C renal
  TGI: > 100 µM
SNB-19 CNS
  TGI: > 100 µM
SNB-75 CNS
  TGI: 78.1 µM
SR leukemia
  TGI: > 100 µM
T-47D breast
  TGI: > 100 µM
TK-10 renal
  TGI: > 100 µM
U251 CNS
  TGI: 53.2 µM
UACC-257 melanoma
  TGI: > 100 µM
UACC-62 melanoma
  TGI: > 100 µM
UO-31 renal
  TGI: 67.6 µM

## O=C(c1c(F)c(F)c(F)c(F)c1F)n1c(=S)n(C(=O)c2c(F)c(F)c(F)c(F)c2F)c2ccccc21
786-0 renal
  TGI: > 100 µM
ACHN renal
  TGI: > 100 µM
BT-549 breast
  TGI: > 100 µM
CCRF-CEM leukemia
  TGI: 49.9 µM
COLO 205 colon
  TGI: > 100 µM
DU-145 prostate
  TGI: > 100 µM
HCC-2998 colon
  TGI: > 100 µM
HCT-116 colon
  TGI: > 100 µM
HCT-15 colon
  TGI: > 100 µM
HL-60(TB) leukemia
  TGI: 45.6 µM
HOP-62 NSCLC
  TGI: > 100 µM
HOP-92 NSCLC
  TGI: > 100 µM
HS 578T breast
  TGI: > 100 µM
HT29 colon
  TGI: > 100 µM
IGROV1 ovarian
  TGI: > 100 µM
K-562 leukemia
  TGI: 51.5 µM
KM12 colon
  TGI: > 100 µM
LOX IMVI melanoma
  TGI: > 100 µM
M14 melanoma
  TGI: > 100 µM
MCF7 breast
  TGI: > 100 µM
MDA-MB-231 breast
  TGI: > 100 µM
MDA-N
  TGI: > 100 µM
MOLT-4 leukemia
  TGI: 54.3 µM
NCI-H460 lung
  TGI: > 100 µM
OVCAR-4 ovarian
  TGI: > 100 µM
OVCAR-5 ovarian
  TGI: > 100 µM
OVCAR-8 ovarian
  TGI: > 100 µM
PC-3 prostate
  TGI: > 100 µM
RPMI-8226 leukemia
  TGI: > 100 µM
SF-268 CNS
  TGI: > 100 µM
SF-295 CNS
  TGI: > 100 µM
SF-539 CNS
  TGI: > 100 µM
SK-MEL-2 melanoma
  TGI: > 100 µM
SK-MEL-28 melanoma
  TGI: > 100 µM
SK-MEL-5 melanoma
  TGI: > 100 µM
SK-OV-3 ovarian
  TGI: > 100 µM
SN12C renal
  TGI: > 100 µM
SNB-19 CNS
  TGI: > 100 µM
SNB-75 CNS
  TGI: > 100 µM
SR leukemia
  TGI: > 100 µM
SW-620 colon
  TGI: > 100 µM
T-47D breast
  TGI: > 100 µM
TK-10 renal
  TGI: > 100 µM
U251 CNS
  TGI: > 100 µM
UACC-257 melanoma
  TGI: > 100 µM
UACC-62 melanoma
  TGI: > 100 µM
UO-31 renal
  TGI: > 100 µM

## S=c1[nH]nc(Cn2c3ccc(Br)cc3c3nc4ccccc4nc32)o1
786-0 renal
  TGI: > 100 µM
A498 renal
  TGI: > 100 µM
A549 NSCLC
  TGI: 59.3 µM
ACHN renal
  TGI: > 100 µM
BT-549 breast
  TGI: > 100 µM
CAKI-1 renal
  TGI: > 100 µM
CCRF-CEM leukemia
  TGI: > 100 µM
COLO 205 colon
  TGI: > 100 µM
DU-145 prostate
  TGI: > 100 µM
EKVX NSCLC
  TGI: > 100 µM
HCC-2998 colon
  TGI: > 100 µM
HCT-116 colon
  TGI: > 100 µM
HCT-15 colon
  TGI: > 100 µM
HOP-62 NSCLC
  TGI: 99.2 µM
HOP-92 NSCLC
  TGI: 47 µM
HT29 colon
  TGI: > 100 µM
IGROV1 ovarian
  TGI: > 90.2 µM
K-562 leukemia
  TGI: > 100 µM
KM12 colon
  TGI: > 100 µM
LOX IMVI melanoma
  TGI: > 65.4 µM
M14 melanoma
  TGI: > 100 µM
MALME-3M melanoma
  TGI: > 100 µM
MCF7 breast
  TGI: > 100 µM
MDA-MB-231 breast
  TGI: > 100 µM
MDA-MB-435
  TGI: > 31.6 µM
MDA-N
  TGI: > 100 µM
MOLT-4 leukemia
  TGI: 60.5 µM
NCI-H226 lung
  TGI: > 100 µM
NCI-H23 lung
  TGI: > 100 µM
NCI-H460 lung
  TGI: > 100 µM
NCI-H522 lung
  TGI: 69.6 µM
NCI/ADR-RES ovarian
  TGI: > 100 µM
OVCAR-3 ovarian
  TGI: > 73.7 µM
OVCAR-5 ovarian
  TGI: > 100 µM
OVCAR-8 ovarian
  TGI: > 100 µM
PC-3 prostate
  TGI: > 93.2 µM
RPMI-8226 leukemia
  TGI: 6.82 µM
RXF 393 renal
  TGI: > 60 µM
SF-268 CNS
  TGI: > 100 µM
SF-295 CNS
  TGI: > 100 µM
SF-539 CNS
  TGI: > 80.7 µM
SK-MEL-2 melanoma
  TGI: > 88.6 µM
SK-MEL-28 melanoma
  TGI: > 79.2 µM
SK-MEL-5 melanoma
  TGI: > 100 µM
SK-OV-3 ovarian
  TGI: > 100 µM
SN12C renal
  TGI: > 100 µM
SNB-19 CNS
  TGI: > 100 µM
SNB-75 CNS
  TGI: > 100 µM
SR leukemia
  TGI: > 100 µM
SW-620 colon
  TGI: > 31.6 µM
T-47D breast
  TGI: > 100 µM
TK-10 renal
  TGI: > 100 µM
U251 CNS
  TGI: > 92.4 µM
UACC-257 melanoma
  TGI: > 100 µM
UACC-62 melanoma
  TGI: > 82.6 µM
UO-31 renal
  TGI: 40.8 µM
